Laboratory results taken from US20070066682A1, “Arylalkylamine vanadium (V) salts for the treatment and/or prevention of Diabetes mellitus” (priority 2005, published 2007).

Assays:
isolated rat adipocytes = experiment: Glucose transport (2-deoxyglucose uptake) in isolated rat adipocytes; assay type: cell-based; details: isolated rat adipocytes, 45 min incubation
Procedure: In order to determine whether salts formed by vanadate and benzylamine could produce an insulin mimetic effect, the effect of increasing concentrations of hexaquis(benzylammonium) decavanadate on glucose transport activity in isolated rat adipocytes was tested. […] In similar assays, the activity of hexaquis(benzylammonium) decavanadate, pentaquis(benzylammonium) decavanadate and tetraquis(benzylammonium) decavanadate on glucose transport activity in isolated rat adipocytes were analyzed.
To determine the possible insulin mimetic effect of certain vanadium arylalkylamines, the capacity of these compounds to enhance glucose transport in isolated rat adipocytes was tested. Adipose cells from Wistar rats were incubated for 45 minutes in basal conditions (Basal) or in the presence of 100 nM insulin (Ins), and different concentrations of. hexaquis(benzylammonium) decavanadate (B6V10) in the absence or in the presence of 1 mM semicarbazide (SCZ). Subsequently, 2-DG transport was measured over a 5 min. interval.
The effects of the three tested compounds (B6V10, B5V10 and B4V10) were compared. Adipose cells from Wistar rats were incubated for 45 minutes in basal conditions (Basal) or in the presence of 100 nM insulin (Ins), and different concentrations of. decavanadate (V10), hexaquis(benzylammonium) decavanadate (B6V10), pentaquis(benzylammonium) decavanadate (B5V10) or tetraquis(benzylammonium) decavanadate (B4V10) in the absence or in the presence of 1 mM semicarbazide (SCZ). 2-DG transport was measured over 5 min. intervals. […]
(§1) The effects of incubation with semicarbazide or phosphatidylinositol 3-kinase inhibitors were also investigated. Adipose cells were incubated with B6V10 (25 μM, 45 min) in the absence or presence of wortmannin (2 μM, 45 min), LY294002 (10 μM, 45 min) or semicarbazide (1 mM, 45 min) and thereafter 2-deoxyglucose uptake was determined during 5 min.

[1] = test system: streptozotocin-induced diabetic rat with undetectable circulating insulin; experiment: Subcutaneous treatment of streptozotocin (100 mg/kg) diabetic rats with undetectable circulating insulin; assay type: in vivo; details: 2.5 μmol/kg subcutaneous minipumps, STZ 100 mg/kg
Procedure: (§2) Male Wistar rats weighting 180-220 g were purchased from Harlan (Interfauna Ibèrica S.A., Spain). Diabetes was induced by a single intraperitoneal injection of a freshly prepared solution of streptozotocin (in some studies the dose was 45 mg/kg body weight and in some others 100 mg/kg body weight dissolved in 50 mM citrate buffer, pH 4.5). Only diabetic animals with glycemia above 300 mg/dl were used. The animals were housed in animal quarters at 22° C., with a 12 h light/12 h dark cycle and were fed ad libitum. All procedures used were approved by the animal ethical committee of the University of Barcelona, Spain. Male mice C57 BL/Ks bearing the db/db mutation (Jackson Laboratories, Bar Harbor, Me.) were purchased from Harlan France (Gannat, France). C57BL/6J male mice were assigned for 16 weeks to very high-fat diet containing (in kcal): 72% from fat, 28% from proteins and <1% from carbohydrates (Burcelin et al., 2002, Am. J. Physiol. Endocrinol. Metab 282: E834-E842).
(§3) In glucose tolerance tests and in chronic treatments, circulating glucose concentrations were determined by a rapid glucose analyser (Accutrend® Sensor Comfort, Roche, Basel. Switzerland). Plasma insulin (IRI) concentration was determined by ELISA method using a kit obtained from Crystal Chem Inc. (Downers Grove, Ill.). Plasma triglycerides (Biosystems, Barcelona, Spain) and NEFAS (Wako Chemicals, Neuss, Germany) were determined with standard […] methods.
To this end, rats were made diabetic by the injection of a large dose of streptozotocin (100 mg/kg) that eliminates β-pancreatic insulin content. […] These streptozotocin-induced diabetic rats were subcutaneously treated with B6V10 (2.5 μmol/kg) (solid squares, FIG. 9A) delivered by osmotic minipumps or left untreated (solid circles, FIG. 9A). Sham-operated nondiabetic rats were also untreated (solid triangles, FIG. 9A).
The concentration of circulating glucose under these conditions was also assayed. After 28 days of treating diabetic rats with hexaquis(benzylammonium) decavanadate (2.5 μmol/kg) (wide striped bars, FIG. 9B), or with decavanadate (close striped bars, FIG. 9B) delivered by osmotic minipumps, plasma insulin and glucose were measured. Untreated diabetic (solid bars, FIG. 9B) or nondiabetic rats (open bars, FIG. 9B) were similarly assayed as controls.

protein kinase B = experiment: Protein kinase B phosphorylation in isolated rat adipocytes; assay type: cell-based; details: 25 μM, rat adipocytes
Procedure: Isolated fat cells were disrupted for total membrane preparation by hypo-osmotic lysis in a 20 mM HES buffer and an antiprotease and antiphosphatase cocktail as reported by Abella et al. (2003, Diabetes 52: 1004-1013). Protein concentrations were determined by the Bradford method (Bradford, 1976, Anal. Biochem. 72: 248-254) with gamma-globulin as protein concentration standard. Immunoprecipitation and immunoblot assays were performed as previously described by Abella et al. (2004, Id.) with the use of a monoclonal antiphosphotyrosine antibody for the immunoprecipitation and an anti-insulin receptor antibody for immunoblotting, respectively. SDS-polyacrylamide gel electrophoresis was performed on membrane proteins following conventional procedures. Proteins were transferred to Immobilon and immunoblotting was performed as reported by Castello et al. (1994, J. Biol. Chem. 269: 5905-5912).
The mechanism of action of B6V10 was investigated in isolated rat adipocytes. Adipose cells from Wistar rats were incubated for different times in the presence of 25 μM hexaquis(benzylammonium) decavanadate (B6V10). Cells were also incubated in the presence of insulin (100 nM, 45 min), decavanadate (25 μM, 45 min) or semicarbazide (1 mM, 45 min). Subsequently, 2-deoxyglucose uptake (results shown in FIG. 7A), tyrosine phosphorylation of insulin receptor (FIG. 7B), phospho-Thr^308-protein kinase B (FIG. 7C) and phospho-Ser^473-protein kinase B (FIG. 7D) was measured. […] The phosphorylation of protein kinase B induced by B6V10 was parallel to activation of glucose transport (FIG. 7C and 7D).
as §1

[2] = test system: streptozotocin-induced diabetic rats; experiment: Chronic subcutaneous (osmotic minipump) treatment of streptozotocin (45 mg/kg) diabetic rats, glycemia; assay type: in vivo, rat; details: 2.5 μmol/kg/day by osmotic minipumps, about two weeks, STZ 45 mg/kg rats
Procedure: as §2
(§4) Osmotic minipumps delivering B6V10 (2.5 μmol/kg body wt/day) or decavanadate (2.5 μmol/kg body wt/day) were implanted subcutaneously in diabetic rats anaesthetised by ketamine hydrochloride (95 mg/kg) and xylasine (10 mg/kg). […] Glycemia was measured on arterio-venous blood collected from the tail vessels at 09:00 am for two weeks, before the administration of vanadate. Insulin concentrations were determined before and after treatment. In another set of experiments, B6V10 was orally administered at a single dose of 5 μmol/kg/day during the first week and 10 μmol/kg/day during 2 additional weeks by gastric gavage. A control group received the corresponding decavanadate salt in the absence of benzylamine. At the end of the treatment, animals were sacrificed and the liver, fat pad, heart and lung were kept at −80° C. and the plasma at −20° C. until their use for in vitro analysis.
as §3
The effect of chronic administration of hexaquis(benzylammonium) decavanadate on glycemia from diabetic rats was determined. Thus, diabetes was induced in rats by intravenous administration of streptozotocin, which destroys the β-pancreatic cells that produce insulin.
Chronic in vivo efficacy of B6V10 was evaluated in streptozotocin-induced diabetic rats and in db/db mice. Streptozotocin-induced (45 mg/kg) diabetic rats were subcutaneously treated with hexaquis(benzylammonium) decavanadate (2.5 μmol/kg) (B6V10, solid squares, FIG. 8A) or with decavanadate (2.5 μmol/kg) (V10, open circles, FIG. 8A) delivered subcutaneously by osmotic minipumps implanted in the dorsal region. Diabetic rats were also sham-operated (untreated, solid diamonds, FIG. 8A). […] These experiments were repeated using an oral administration protocol. Streptozotocin-induced (45 mg/kg) diabetic rats were orally treated with hexaquis(benzylammonium) decavanadate (5 μmol/kg from day 0 to day 7 and 10 μmol/kg/day from day 7 to day 17) (B6V10, solid squares, FIG. 8B) or received decavanadate (10 μmol/kg) (V10, open circles, FIG. 8B). […]

[3] = test system: streptozotocin-induced diabetic rats; experiment: Chronic oral treatment of streptozotocin (45 mg/kg) diabetic rats, glycemia; assay type: in vivo, rat; details: for glycemia during chronic oral treatment: daily oral, 17 days (5 then 10 μmol/kg/day), STZ 45 mg/kg rats
Procedure: as §2, §4, §3
The effect of the oral administration of hexaquis(benzylammonium) decavanadate on glycemia from diabetic rats was also studied. Diabetes was induced in rats by intravenous administration of streptozotocin, and subsequently, a hexaquis(benzylammonium) decavanadate or sodium decavanadate unique dose was administered to the rats. […] After seven days of treatment, the dose was increased at 10 μmol/kg/day which was maintained for an additional ten days. […] Thus, glycemia in sodium decavanadate treated rats was approximately 450 mg/dl and glycemia of hexaquis(benzylammonium) decavanadate treated rats was approximately 250 mg/dl.
Chronic in vivo efficacy of B6V10 was evaluated in streptozotocin-induced diabetic rats and in db/db mice. Streptozotocin-induced (45 mg/kg) diabetic rats were subcutaneously treated with hexaquis(benzylammonium) decavanadate (2.5 μmol/kg) (B6V10, solid squares, FIG. 8A) or with decavanadate (2.5 μmol/kg) (V10, open circles, FIG. 8A) delivered subcutaneously by osmotic minipumps implanted in the dorsal region. Diabetic rats were also sham-operated (untreated, solid diamonds, FIG. 8A). […] These experiments were repeated using an oral administration protocol. Streptozotocin-induced (45 mg/kg) diabetic rats were orally treated with hexaquis(benzylammonium) decavanadate (5 μmol/kg from day 0 to day 7 and 10 μmol/kg/day from day 7 to day 17) (B6V10, solid squares, FIG. 8B) or received decavanadate (10 μmol/kg) (V10, open circles, FIG. 8B). Nondiabetic rats were also untreated (solid triangles, FIG. 8B).

sodium decavanadate [Entry V10, reference compound]
stimulation of glucose transport (2-DG uptake) (isolated rat adipocytes): did not stimulate glucose transport
glycemia in diabetic rats with undetectable insulin [1]: did not show any change in circulating glucose
protein kinase B phosphorylation (protein kinase B): not observed
glycemia during chronic subcutaneous treatment [2]: did not alter glycemia
glycemia during chronic subcutaneous treatment ([2]; listed as sodium decavanadate): did not modify substantially its glycemia
glycemia during chronic oral treatment [3]: did not alter glycemia
glycemia during chronic oral treatment ([3]; listed as sodium decavanadate): not affected substantially
glycemia ([3]; oral treatment, after dose increase to 10 μmol/kg/day): approximately 450 mg/dl
